Experimental data from EP3046573B1, “AMYLIN ANALOGUES” (Zealand Pharma A/S, priority 2013, dated 2015).
Numbered stars: 1 amine (or outer) side, 2 acyl side, 3 side chain; on linkers, the order of the positions; unused ones are H or OH. Bridge positions count the residues as written; N and C are the ends. Square brackets hold non-standard residues; d marks the D form. Peptide text beside a SMILES is read from it. * marks the point of attachment. C20 diacid = O=C(O)CCCCCCCCCCCCCCCCCCC(=O)*; γGlu = O=C(O)[C@H](CCC(=O)[*:2])N[*:1]; NMeI = CC[C@H](C)[C@H](NC)C(=O)O; Sar = CNCC(=O)O

Key:
[1] = molecular target: T1, human calcitonin receptor (hCTR2) (Homo sapiens, UniProt P30988); assay: hCTR2 assay: induction of cAMP (AlphaScreen cAMP Assay kit) in COS7 cells expressing hCTR2; assay type: cell-based; conditions: cAMP induction in COS7 cells expressing hCTR2; average of a minimum of 3 determinations; read-out: hCTR2 EC50
T1 construct: expressed in transfected cells
T1 sequence (P30988 25-474): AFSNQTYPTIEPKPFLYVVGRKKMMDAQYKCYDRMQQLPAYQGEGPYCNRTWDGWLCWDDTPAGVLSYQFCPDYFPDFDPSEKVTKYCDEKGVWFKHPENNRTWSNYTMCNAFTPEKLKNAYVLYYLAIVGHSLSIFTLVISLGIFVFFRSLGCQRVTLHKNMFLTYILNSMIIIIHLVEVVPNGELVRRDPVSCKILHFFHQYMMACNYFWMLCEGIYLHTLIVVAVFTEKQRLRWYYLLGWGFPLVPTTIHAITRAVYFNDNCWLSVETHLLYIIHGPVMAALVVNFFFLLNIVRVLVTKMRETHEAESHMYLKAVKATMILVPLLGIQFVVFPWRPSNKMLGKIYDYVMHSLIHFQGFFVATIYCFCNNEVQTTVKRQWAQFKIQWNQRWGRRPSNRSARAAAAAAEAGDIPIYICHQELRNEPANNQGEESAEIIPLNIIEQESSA
In short: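 COS7 stable hCTR2 clone (RAMP-free); peptide dose-response 15 min 37° C in Tyrode pH 7.4 + 100 µM IBMX + 0.1% casein; lysis 10 min RT; AlphaScreen cAMP; 4PL fit.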

[2] = molecular target: T2, human amylin receptor 3 (hAMYR3) consisting of hCTR2 co-expressed with human Receptor Activity Modifying Protein 3 (hRAMP3) (Homo sapiens, UniProt O60896+P30988); assay: hAMYR3 assay: induction of cAMP (AlphaScreen cAMP Assay kit) in COS7 cells expressing hAMYR3; assay type: cell-based; conditions: cAMP induction in COS7 cells expressing hAMYR3; average of a minimum of 3 determinations; read-out: hAMY R3 EC50
T2 construct: expressed in transfected cells
T2 sequence (P30988 25-474): T1 sequence (P30988 25-474)
T2 sequence (O60896 24-148 partner): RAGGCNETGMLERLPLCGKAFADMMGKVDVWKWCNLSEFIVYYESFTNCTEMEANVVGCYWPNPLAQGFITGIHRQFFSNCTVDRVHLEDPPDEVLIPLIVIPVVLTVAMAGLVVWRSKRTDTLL
In short: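 Stable COS7 clone co-expressing hCTR2 and hRAMP3, stimulated 15 min at 37° C with increasing peptide in Tyrode buffer pH 7.4 with 100 µM IBMX and 0.1% casein. cAMP measured by AlphaScreen after lysis; EC50 and % efficacy versus pramlintide from 4PL fit.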

[3] = Solubility assessment (turbidity absorbance at 325 nm); assay type: physicochemical; conditions: stock 2 mg/ml diluted 1:1, ambient temperature (typically 25°C), n=1; for Solubility, Acetate buffer pH 4: 100 mM acetate buffer pH 4.0; for Solubility, Acetate buffer pH 5: 100 mM acetate buffer pH 5.0; for Solubility, Histidine buffer pH 6: 100 mM histidine buffer pH 6.0; for Solubility, Histidine buffer pH 7: 100 mM histidine buffer pH 7.0; for Solubility, Phosphate buffer pH 6: 100 mM phosphate buffer pH 6.0; for Solubility, Phosphate buffer pH 7: 100 mM phosphate buffer pH 7.0; for Solubility, Phosphate buffer pH 7.5: 100 mM phosphate buffer pH7.5
In short: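 Stock 2 mg/ml peptide, H2O/HCl pH 2.5; 1:1 into 100 mM buffers: acetate pH 4.0/5.0, His pH 6.0/7.0, phosphate pH 6.0/7.0/7.5. A280 + A325, ~25°C, n=1. Soluble ≥ 1 mg/ml if A325 ≤ 0.02.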

EC50 [1]	EC50 [2]	Solubility, Acetate buffer pH 4 [3]	Solubility, Acetate buffer pH 5 [3]	Solubility, Histidine buffer pH 6 [3]	Solubility, Histidine buffer pH 7 [3]	Solubility, Phosphate buffer pH 6 [3]	Solubility, Phosphate buffer pH 7 [3]	Solubility, Phosphate buffer pH 7.5 [3]	Structure (SMILES)
0.15 nM	0.3 nM	SS (SS indicates solubility ≥ 1mg/ml)	SS (SS indicates solubility ≥ 1mg/ml)	II (II indicates solubility ≤ 1 mg/ml)	SS (SS indicates solubility ≥ 1mg/ml)	SS (SS indicates solubility ≥ 1mg/ml)	II (II indicates solubility ≤ 1 mg/ml)	SS (SS indicates solubility ≥ 1mg/ml)	CC[C@H](C)[C@@H](C(=O)N[C@@H](CC(C)C)C(=O)N[C@@H](CO)C(=O)N[C@@H](CO)C(=O)N[C@H](C(=O)N[C@@H](CCC(=O)O)C(=O)N[C@H](C(=O)NCC(=O)N[C@@H](CO)C(=O)N[C@@H](CCC(=O)O)C(=O)N[C@H](C(=O)N1CCC[C@H]1C(N)=O)[C@@H](C)O)C(C)C)[C@@H](C)O)N(C)C(=O)[C@H](C)NC(=O)CN(C)C(=O)[C@H](Cc1ccccc1)NC(=O)[C@H](CO)NC(=O)[C@H](CO)NC(=O)[C@H](CO)NC(=O)[C@H](CO)NC(=O)[C@H](CCCNC(=N)N)NC(=O)[C@H](Cc1c[nH]cn1)NC(=O)[C@H](CC(C)C)NC(=O)[C@H](Cc1ccccc1)NC(=O)[C@H](CCC(=O)O)NC(=O)[C@H](C)NC(=O)[C@H](CC(C)C)NC(=O)[C@H](CCCNC(=N)N)NC(=O)[C@H](CC(C)C)NC(=O)[C@@H](NC(=O)[C@H](C)NC(=O)[C@@H]1CSSC[C@H](NC(=O)[C@H](CCCNC(=N)N)NC(=O)CC[C@H](NC(=O)CCCCCCCCCCCCCCCCCCC(=O)O)C(=O)O)C(=O)N[C@@H](CC(N)=O)C(=O)N[C@@H]([C@@H](C)O)C(=O)N[C@@H](C)C(=O)N[C@@H]([C@@H](C)O)C(=O)N1)[C@@H](C)O [Compound 121, [19CD]-isoGlu-RC()NTATC()ATLRLAEFLHRSSSSF-Gly(Me)-A-Ile(Me)-LSSTEVGSETP-NH2] ({C20 diacid-γGlu}-RCNTATCATLRLAEFLHRSSSSF[Sar]A[NMeI]LSSTEVGSETP-NH2; disulfide 2-7)
0.11 nM	0.2 nM	SS (SS indicates solubility ≥ 1mg/ml)	SS (SS indicates solubility ≥ 1mg/ml)	SS (SS indicates solubility ≥ 1mg/ml)	SS (SS indicates solubility ≥ 1mg/ml)	SS (SS indicates solubility ≥ 1mg/ml)	SS (SS indicates solubility ≥ 1mg/ml)	SS (SS indicates solubility ≥ 1mg/ml)	CC[C@H](C)[C@@H](C(=O)N[C@@H](CC(C)C)C(=O)N[C@@H](CO)C(=O)N[C@@H](CO)C(=O)N[C@H](C(=O)N[C@@H](CCC(=O)O)C(=O)N[C@H](C(=O)NCC(=O)N[C@@H](CO)C(=O)N[C@@H](CCC(=O)O)C(=O)N[C@H](C(=O)N1CCC[C@H]1C(N)=O)[C@@H](C)O)C(C)C)[C@@H](C)O)N(C)C(=O)[C@H](C)NC(=O)CN(C)C(=O)[C@H](Cc1ccccc1)NC(=O)[C@H](CO)NC(=O)[C@H](CO)NC(=O)[C@H](CO)NC(=O)[C@H](CO)NC(=O)[C@H](CCCNC(=N)N)NC(=O)[C@H](Cc1c[nH]cn1)NC(=O)[C@H](CC(C)C)NC(=O)[C@H](Cc1ccccc1)NC(=O)[C@H](CCC(=O)O)NC(=O)[C@H](C)NC(=O)[C@H](CC(C)C)NC(=O)[C@H](CCCNC(=N)N)NC(=O)CNC(=O)[C@@H](NC(=O)[C@H](C)NC(=O)[C@@H]1CSSC[C@H](NC(=O)[C@H](CCCNC(=N)N)NC(=O)CC[C@H](NC(=O)CCCCCCCCCCCCCCCCCCC(=O)O)C(=O)O)C(=O)N[C@@H](CC(N)=O)C(=O)N[C@@H]([C@@H](C)O)C(=O)N[C@@H](C)C(=O)N[C@@H]([C@@H](C)O)C(=O)N1)[C@@H](C)O [Compound 122, [19CD]-isoGlu-RC()NTATC()ATGRLAEFLHRSSSSF-Gly(Me)-A-Ile(Me)-LSSTEVGSETP-NH2] ({C20 diacid-γGlu}-RCNTATCATGRLAEFLHRSSSSF[Sar]A[NMeI]LSSTEVGSETP-NH2; disulfide 2-7)
0.28 nM	0.29 nM	SS (SS indicates solubility ≥ 1mg/ml)	SS (SS indicates solubility ≥ 1mg/ml)	SS (SS indicates solubility ≥ 1mg/ml)	SS (SS indicates solubility ≥ 1mg/ml)	SS (SS indicates solubility ≥ 1mg/ml)	SS (SS indicates solubility ≥ 1mg/ml)	SS (SS indicates solubility ≥ 1mg/ml)	CC[C@H](C)[C@@H](C(=O)N[C@@H](CC(C)C)C(=O)N[C@@H](CO)C(=O)N[C@@H](CO)C(=O)N[C@H](C(=O)N[C@@H](CCC(=O)O)C(=O)N[C@H](C(=O)NCC(=O)N[C@@H](CO)C(=O)N[C@@H](CCC(=O)O)C(=O)N[C@H](C(=O)N1CCC[C@H]1C(N)=O)[C@@H](C)O)C(C)C)[C@@H](C)O)N(C)C(=O)[C@H](C)NC(=O)CN(C)C(=O)[C@H](Cc1ccccc1)NC(=O)[C@H](CO)NC(=O)[C@H](CO)NC(=O)[C@H](CO)NC(=O)[C@H](CO)NC(=O)[C@H](CCCNC(=N)N)NC(=O)[C@H](Cc1c[nH]cn1)NC(=O)[C@H](CC(C)C)NC(=O)[C@H](Cc1ccccc1)NC(=O)[C@H](CCC(=O)O)NC(=O)[C@H](C)NC(=O)[C@H](CC(C)C)NC(=O)[C@H](CCCNC(=N)N)NC(=O)[C@@H](NC(=O)[C@@H](NC(=O)[C@H](C)NC(=O)[C@@H]1CSSC[C@H](NC(=O)[C@H](CCCNC(=N)N)NC(=O)CC[C@H](NC(=O)CCCCCCCCCCCCCCCCCCC(=O)O)C(=O)O)C(=O)N[C@@H](CC(N)=O)C(=O)N[C@@H]([C@@H](C)O)C(=O)N[C@@H](C)C(=O)N[C@@H]([C@@H](C)O)C(=O)N1)[C@@H](C)O)[C@@H](C)O [Compound 123, [19CD]-isoGlu-RC()NTATC()ATTRLAEFLHRSSSSF-Gly(Me)-A-Ile(Me)-LSSTEVGSETP-NH2] ({C20 diacid-γGlu}-RCNTATCATTRLAEFLHRSSSSF[Sar]A[NMeI]LSSTEVGSETP-NH2; disulfide 2-7)
0.14 nM	0.17 nM	SS (SS indicates solubility ≥ 1mg/ml)	SS (SS indicates solubility ≥ 1mg/ml)	SS (SS indicates solubility ≥ 1mg/ml)	SS (SS indicates solubility ≥ 1mg/ml)	SS (SS indicates solubility ≥ 1mg/ml)	SS (SS indicates solubility ≥ 1mg/ml)	SS (SS indicates solubility ≥ 1mg/ml)	CC[C@H](C)[C@@H](C(=O)N[C@@H](CC(C)C)C(=O)N[C@@H](CO)C(=O)N[C@@H](CO)C(=O)N[C@H](C(=O)N[C@@H](CCC(=O)O)C(=O)N[C@H](C(=O)NCC(=O)N[C@@H](CO)C(=O)N[C@@H](CCC(=O)O)C(=O)N[C@H](C(=O)N1CCC[C@H]1C(N)=O)[C@@H](C)O)C(C)C)[C@@H](C)O)N(C)C(=O)[C@H](C)NC(=O)CN(C)C(=O)[C@H](Cc1ccccc1)NC(=O)[C@H](CO)NC(=O)[C@H](CO)NC(=O)[C@H](CO)NC(=O)[C@H](CO)NC(=O)[C@H](CCCNC(=N)N)NC(=O)[C@H](Cc1c[nH]cn1)NC(=O)[C@H](CC(C)C)NC(=O)[C@H](Cc1ccccc1)NC(=O)[C@H](CCC(=O)O)NC(=O)[C@H](C)NC(=O)[C@H](CC(C)C)NC(=O)[C@H](CCCNC(=N)N)NC(=O)[C@H](CO)NC(=O)[C@@H](NC(=O)[C@H](C)NC(=O)[C@@H]1CSSC[C@H](NC(=O)[C@H](CCCNC(=N)N)NC(=O)CC[C@H](NC(=O)CCCCCCCCCCCCCCCCCCC(=O)O)C(=O)O)C(=O)N[C@@H](CC(N)=O)C(=O)N[C@@H]([C@@H](C)O)C(=O)N[C@@H](C)C(=O)N[C@@H]([C@@H](C)O)C(=O)N1)[C@@H](C)O [Compound 124, [19CD]-isoGlu-RC()NTATC()ATSRLAEFLHRSSSSF-Gly(Me)-A-Ile(Me)-LSSTEVGSETP-NH2] ({C20 diacid-γGlu}-RCNTATCATSRLAEFLHRSSSSF[Sar]A[NMeI]LSSTEVGSETP-NH2; disulfide 2-7)
